pIC50: −log10 of the molar value. “And” between values parts separate entries of the source, which are not always exact repeats. Equal values may be shown once.
System: Rhesus monkey
Test: Inhibition of platelet aggregation at 24 hr in response to collagen in conscious rhesus monkey
Format: functional, Cercopithecidae

Compound | Inhibition
CCCCS(=O)(=O)N[C@@H](CNC(=O)c1cc2n(n1)CCN(CCC1CCNCC1)C2=O)C(=O)O | 86% and 31%

Species: Homo sapiens
Test: Concentration required for 50% inhibition of platelet aggregation of human gel-filtered platelets(GFP) in platelet aggregation assay
Format: functional

Compound | pIC50
C[C@H](CC(=O)O)NC(=O)c1cc2n(n1)CCN(CCC1CCNCC1)C2=O | 6.59
N[C@@H](CNC(=O)c1cc2n(n1)CCN(CCC1CCNCC1)C2=O)C(=O)O | 7.35
C#C[C@H](CC(=O)O)NC(=O)c1cc2n(n1)CCN(CCC1CCNCC1)C2=O | 6.92

The remaining lines, values ahead:

pIC50 | Compound
8.30 | O=C(N[C@@H](CNC(=O)c1cc2n(n1)CCN(CCC1CCNCC1)C2=O)C(=O)O)OCc1ccccc1
7.82 | CS(=O)(=O)N[C@@H](CNC(=O)c1cc2n(n1)CCN(CCC1CCNCC1)C2=O)C(=O)O
7.60 | CC(=O)N[C@@H](CNC(=O)c1cc2n(n1)CCN(CCC1CCNCC1)C2=O)C(=O)O
7.96 | C=CCCS(=O)(=O)N[C@@H](CNC(=O)c1cc2n(n1)CCN(CCC1CCNCC1)C2=O)C(=O)O
7.66 | O=C(NCc1ccccc1)N[C@@H](CNC(=O)c1cc2n(n1)CCN(CCC1CCNCC1)C2=O)C(=O)O

System: Rhesus monkey
Test: Inhibition of platelet aggregation at 6 hr in response to ADP and collagen in conscious rhesus monkey
Format: functional, Cercopithecidae

Compound | Inhibition
CCCCS(=O)(=O)N[C@@H](CNC(=O)c1cc2n(n1)CCN(CCC1CCNCC1)C2=O)C(=O)O | >90%
